We go through 19 compounds from PubChem BioAssay AID330 (DTP/NCI, 2004).

The test system of the assay is P388 leukemia ip, CD2F1 mice, survival T/C. The assay is described as follows: NCI In Vivo Anticancer Drug Screen. Data for tumor model P388 Leukemia (intraperitoneal) in CD2F1 (CDF1) mice. Conditions: endpoint: median survival time, higher = longer survival. Put shortly: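 Mice carrying the transplanted tumor received test compound or vehicle. Survival was recorded in each group, and the value is the treated-group measurement divided by that of the vehicle-treated control group.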

[1] abbreviates: dose: 50.0 mg/kg/injection, schedule: Q01DX005 (ip), vehicle: Klucel (hydroxypropylcellulose) (HPC).
Setting [2] is: dose: 100.0 mg/kg/injection, schedule: Q01DX005 (ip), vehicle: Klucel (hydroxypropylcellulose) (HPC).
[3] abbreviates: dose: 200.0 mg/kg/injection, schedule: Q01DX005 (ip), vehicle: Klucel (hydroxypropylcellulose) (HPC).
Where [4] appears, read: dose: 50.0 mg/kg/injection, schedule: Q01DX005 (ip), vehicle: saline with Tween-80.
[5] abbreviates: dose: 100.0 mg/kg/injection, schedule: Q01DX005 (ip), vehicle: saline with Tween-80.
Where [6] appears, read: dose: 25.0 mg/kg/injection, schedule: Q01DX005 (ip), vehicle: Klucel (hydroxypropylcellulose) (HPC).
Setting [7] is: dose: 100.0 mg/kg/injection, schedule: Q04DX003 (ip), vehicle: saline with Tween-80.

Values joined by “and” are separate entries in the source; they are usually repeats but may differ in a detail not shown here. Equal entries are not always repeated. Inconclusive results and toxic doses are left out. Peptide text beside a SMILES is read from it.

`CC1(C)OC2COC3OC(C)(C)OC3(/C=N\NC(=O)c3cc4cc(OCc5ccccc5)ccc4[nH]3)C2O1` (stereo not drawn): the T/C under setting [1] is 101 % of control, the T/C under setting [2] was 95 % of control and the T/C under setting [3] is 97 % of control.
For the compound `Cc1ccccc1[B-]12OCC[N+]1(CNC(=O)C1=C(O)C3(O)C(=O)C4=C(O)c5c(O)cccc5C(C)(O)C4CC3C(N(C)C)C1=O)CCO2` (stereo not drawn), the T/C was 110 % of control under setting [1], 115 % of control under setting [2] and 108 % of control under setting [3].
Consider `CCCCCCN(CCCCCC)C(=N)c1ccnc2ccccc12`, for which the T/C was 92 % of control (dose: 12.5 mg/kg/injection, schedule: Q01DX005 (ip), vehicle: saline); 100 % of control (dose: 25.0 mg/kg/injection, schedule: Q01DX005 (ip), vehicle: saline); 87 % of control and 94 % of control (dose: 50.0 mg/kg/injection, schedule: Q01DX005 (ip), vehicle: saline).
Consider `Cc1nn2c(-c3cnns3)nnc2s1`, for which the T/C runs as follows: (dose: 50.0 mg/kg/injection, schedule: Q01DX001 (ip), vehicle: Klucel (hydroxypropylcellulose) (HPC)) 107 % of control; (dose: 100.0 mg/kg/injection, schedule: Q01DX001 (ip), vehicle: Klucel (hydroxypropylcellulose) (HPC)) 107 % of control; (dose: 200.0 mg/kg/injection, schedule: Q01DX001 (ip), vehicle: Klucel (hydroxypropylcellulose) (HPC)) 100 % of control.
For `O=C(NCc1ccncc1)c1ccccc1`, the T/C reads like this: (dose: 100.0 mg/kg/injection, schedule: Q04DX003 (ip), vehicle: saline) 104 % of control; (dose: 200.0 mg/kg/injection, schedule: Q04DX003 (ip), vehicle: saline) 100 % of control; (dose: 400.0 mg/kg/injection, schedule: Q04DX003 (ip), vehicle: saline) 106 % of control.
Regarding `CNC(=O)OCCC(OC(=O)NC)C1CCC2C3CC=C4CC(OC(=O)NC)CCC4(C)C3CCC12C` (stereo not drawn), the T/C was 99 % of control (dose: 60.0 mg/kg/injection, schedule: Q01DX005 (ip), vehicle: Klucel (hydroxypropylcellulose) (HPC)); 93 % of control (dose: 120.0 mg/kg/injection, schedule: Q01DX005 (ip), vehicle: Klucel (hydroxypropylcellulose) (HPC)); 100 % of control (dose: 240.0 mg/kg/injection, schedule: Q01DX005 (ip), vehicle: Klucel (hydroxypropylcellulose) (HPC)).
Take `C=C(Cn1cc(F)c(=O)n(CC(=C)C(=O)OCC)c1=O)C(=O)OCC`: the T/C (dose: 11.25 mg/kg/injection, schedule: Q04DX002 (ip), vehicle: distilled water + Tween-80) is 100 % of control; the T/C (dose: 22.5 mg/kg/injection, schedule: Q04DX002 (ip), vehicle: distilled water + Tween-80) is 93 % of control; the T/C (dose: 45.0 mg/kg/injection, schedule: Q04DX002 (ip), vehicle: distilled water + Tween-80) is 95 % of control; the T/C (dose: 90.0 mg/kg/injection, schedule: Q04DX002 (ip), vehicle: distilled water + Tween-80) is 90 % of control; the T/C (dose: 180.0 mg/kg/injection, schedule: Q04DX002 (ip), vehicle: distilled water + Tween-80) was 86 % of control.
Consider `O=C(CC(c1cccnc1)C(C(=O)c1ccc(Cl)cc1)C(CC(=O)c1ccc(Cl)cc1)c1cccnc1)c1ccc(Cl)cc1` (stereo not drawn), for which the T/C under setting [4] is 90 % of control; the T/C under setting [5] was 90 % of control; the T/C (dose: 200.0 mg/kg/injection, schedule: Q01DX005 (ip), vehicle: saline with Tween-80) is 92 % of control.
As for `OC1CC2CCCCC2CC1(O)c1ccc(OCc2ccccc2)c(OCc2ccccc2)c1` (stereo not drawn), the T/C reads like this: (dose: 25.0 mg/kg/injection, schedule: Q01DX001 (ip), vehicle: saline with Tween-80) 92 % of control; (dose: 50.0 mg/kg/injection, schedule: Q01DX001 (ip), vehicle: saline with Tween-80) 88 % of control; (dose: 100.0 mg/kg/injection, schedule: Q01DX001 (ip), vehicle: saline with Tween-80) 86 % of control.
In the case of `O=C(/C=C/c1ccc2c(c1)OCO2)c1ccccc(=O)c1O`, the T/C under setting [6] is 95 % of control, the T/C under setting [1] is 100 % of control, the T/C under setting [2] was 101 % of control and the T/C under setting [3] is 118 % of control.
`CC(=O)NS(=O)(=O)c1ccc(NC(=O)c2ccco2)cc1`: the T/C is 98 % of control (dose: 50.0 mg/kg/injection, schedule: Q01DX009 (ip), vehicle: saline + alcohol); 104 % of control (dose: 100.0 mg/kg/injection, schedule: Q01DX009 (ip), vehicle: saline + alcohol); 91 % of control (dose: 200.0 mg/kg/injection, schedule: Q01DX009 (ip), vehicle: saline + alcohol).
For `CCC(C(=O)NNC(=O)c1cc(OC)c(OC)c(OC)c1)c1ccccc1` (stereo not drawn), the T/C reads like this: (dose: 12.5 mg/kg/injection, schedule: Q01DX009 (ip), vehicle: saline with Tween-80) 105 % of control; (dose: 25.0 mg/kg/injection, schedule: Q01DX009 (ip), vehicle: saline with Tween-80) 97 % of control; (dose: 50.0 mg/kg/injection, schedule: Q01DX009 (ip), vehicle: saline with Tween-80) 98 % of control; (dose: 100.0 mg/kg/injection, schedule: Q01DX009 (ip), vehicle: saline with Tween-80) 98 % of control.
For `CC(C)CC(NC(=O)C(CC(=O)O)NC(=O)C(N)CO)C(=O)N1CCCC1C(=O)NC(CCC(N)=O)C(=O)NC(C(=O)O)C(C)O` (stereo not drawn) (H-SDLPQT-OH; configuration not given here), the T/C reads like this: (dose: 9.0 mg/kg/injection, schedule: Q01DX005 (ip), vehicle: water) 110 % of control; (dose: 18.0 mg/kg/injection, schedule: Q01DX005 (ip), vehicle: water) 107 % of control; (dose: 36.0 mg/kg/injection, schedule: Q01DX005 (ip), vehicle: water) 107 % of control; (dose: 72.0 mg/kg/injection, schedule: Q01DX005 (ip), vehicle: water) 107 % of control; (dose: 144.0 mg/kg/injection, schedule: Q01DX005 (ip), vehicle: water) 100 % of control.
With `O=c1cc(-c2ccccc2)c2ccc(O)c(CN(CCO)CCO)c2o1`, the T/C is 89 % of control (dose: 100.0 mg/kg/injection, schedule: Q04DX002 (ip), vehicle: saline with Tween-80) and 89 % of control (dose: 200.0 mg/kg/injection, schedule: Q04DX002 (ip), vehicle: saline with Tween-80).
On to `CC(C)=NOC1CCCCC1O` (stereo not drawn), for which the T/C was 96 % of control under setting [7]; 99 % of control (dose: 200.0 mg/kg/injection, schedule: Q04DX003 (ip), vehicle: saline with Tween-80); 106 % of control (dose: 400.0 mg/kg/injection, schedule: Q04DX003 (ip), vehicle: saline with Tween-80).
In the case of `O=C1OC(C2=CC(=O)c3ccccc3C2=O)C(Cl)=C1Cl` (stereo not drawn), the T/C reads like this: under setting [4], 121 % of control; under setting [5], 109 % of control.
For the compound `Cc1nc2c([N+](=O)[O-])c(NCCCc3ccccc3)c([N+](=O)[O-])cc2[nH]1`, the T/C was 94 % of control (dose: 50.0 mg/kg/injection, schedule: Q04DX003 (ip), vehicle: saline with Tween-80); 100 % of control and 96 % of control under setting [7].
Consider `CCC(=O)C1(C)OC1C(C)CC(C)C1OC(=O)CC2(O)CC=C(C)C(O2)/C(C)=C/CCCC(OC2CC(OC(N)=O)C(O)C(C)O2)/C=C/C(C)C(O)C1C` (stereo not drawn), for which the T/C runs as follows: (dose: 6.2 mg/kg/injection, schedule: Q01DX005 (ip), vehicle: Klucel (hydroxypropylcellulose) (HPC)) 109 % of control; (dose: 12.5 mg/kg/injection, schedule: Q01DX005 (ip), vehicle: Klucel (hydroxypropylcellulose) (HPC)) 98 % of control; under setting [6], 103 % of control; under setting [1], 108 % of control.
`COc1cccc2c1C(=O)c1c(O)c3c(c(O)c1C2=O)C[C@@](O)(C(=O)CO)C[C@@H]3OC1CC(N2CCOCC2C#N)C(O)C(C)O1` (stereo partly drawn): the T/C (dose: 9.38 micrograms/kg/injection, schedule: Q04DX003 (ip), vehicle: saline with Tween-80) was 191 % of control and 198 % of control; the T/C (dose: 9.38 micrograms/kg/injection, schedule: Q04DX003 (ip), vehicle: water) was 105 % of control; the T/C (dose: 15.0 micrograms/kg/injection, schedule: Q04DX003 (iv), vehicle: saline + alcohol) is 180 % of control; the T/C (dose: 18.75 micrograms/kg/injection, schedule: Q04DX003 (ip), vehicle: saline with Tween-80) was 252 % of control and 260 % of control; the T/C (dose: 18.75 micrograms/kg/injection, schedule: Q04DX003 (ip), vehicle: water) is 107 % of control; the T/C (dose: 22.0 micrograms/kg/injection, schedule: Q04DX003 (iv), vehicle: saline + alcohol) is 180 % of control. Moreover, the T/C (dose: 37.5 micrograms/kg/injection, schedule: Q04DX003 (ip), vehicle: saline with Tween-80) was 110 % of control; the T/C (dose: 75.0 micrograms/kg/injection, schedule: Q04DX003 (ip), vehicle: water) was 178 % of control and 196 % of control; the T/C (dose: 150.0 micrograms/kg/injection, schedule: Q04DX003 (ip), vehicle: water) was 111 % of control; the T/C (dose: 300.0 micrograms/kg/injection, schedule: Q04DX003 (ip), vehicle: water) is 89 % of control.
